We go through eleven compounds from patent publication US20240132431A1, “METHOD FOR ALKYLATING ACIDIC FUNCTIONAL GROUP” (Chugai Seiyaku Kabushiki Kaisha, priority 2021, published 2024).

For this assay, the target named is T1, Bcl-2 protein (Recombinant Human Bcl-2 Protein) (Homo sapiens, UniProt P10415).
T1 construct: purchased Novus NBP2-34889
Briefly: Binding evaluation of mixture library compounds to Bcl-2 using AS-MS (affinity selection mass spectrometry). The following applies: for ASMS ratio (%) n = 1 / ASMS ratio (%) n = 2: ASMS Ratio(%)=(A−C)/B×100; for ASMS ratio (%) n = 1: replicate n = 1; for ASMS ratio (%) n = 2: replicate n = 2. Put shortly: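 ASMS Ratio (%) was calculated as (A−C)/B×100, where A is the protein sample after SEC, B the protein-free sample without SEC and C the protein-free sample after SEC. Each compound was at […] in a 1200-member pool with 20 μM Bcl-2, incubated 1 h at 23° C.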

Where [1] appears, read: AS-MS on the mixture of 1200 library compounds.
The mark [2] stands for this setting: AS-MS, mixture of 1200 compounds, Bcl-2.

T1 sequence (P10415 whole entry): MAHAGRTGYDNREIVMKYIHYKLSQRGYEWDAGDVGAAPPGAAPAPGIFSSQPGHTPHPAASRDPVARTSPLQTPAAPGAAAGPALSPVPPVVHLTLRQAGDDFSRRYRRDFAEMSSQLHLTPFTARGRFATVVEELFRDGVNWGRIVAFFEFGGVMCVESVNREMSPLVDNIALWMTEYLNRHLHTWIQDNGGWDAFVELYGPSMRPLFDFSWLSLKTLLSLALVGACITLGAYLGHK

For `CCOc1cccc(-c2ccc(C(=O)N3CCN(c4ccc(C(=O)Nc5ccc(OC)cc5)nn4)CC3)cc2F)c1` [B1O005-01, 6-[4-[4-(3-Ethoxyphenyl)-3-fluorobenzoyl]piperazin-1-yl]-N-(4-methoxyphenyl)pyridazine-3-carboxamide], under setting [1], the “ASMS ratio (%) n = 1” value is given as 3.6% and the “ASMS ratio (%) n = 2” value is listed as −2.5%.
Take `CCOc1cccc(-c2ccc(CN3CCN(c4ccc(C(=O)NS(=O)(=O)c5ccc(NCCSc6ccccc6)c(C(F)(F)F)c5)nn4)CC3)cc2C)c1` [B2R073-01, 6-[4-[[4-(3-Ethoxyphenyl)-3-methylphenyl]methyl]piperazin-1-yl]-N-[4-(2-phenylsulfanylethylamino)-3-(trifluoromethyl)phenyl]sulfonylpyridazine-3-carboxamide]: the “ASMS ratio (%)” value is, setting by setting: (n = 1) 24.0%; (n = 2) 0.0%.
For “6-[4-[5-[2-(3-Ethoxyphenyl)ethynyl]pyridine-3-carbonyl]piperazin-1-yl]-N-propylpyridazine-3-carboxamide [B1M001-01]”, under setting [2], the “ASMS ratio (%) n = 1” value is given as 0.0% and the “ASMS ratio (%) n = 2” value amounted to 0.0%.
`CCOc1cccc(-c2ccc(CN3CCN(c4ccc(C(=O)NCC56CC7CC(CC(C7)C5)C6)cc4)CC3)cc2F)c1` [B1A051-01, N-(1-Adamantylmethyl)-4-[4-[[4-(3-ethoxyphenyl)-3-fluorophenyl]methyl]piperazin-1-yl]benzamide]: under setting [2], the “ASMS ratio (%) n = 1” value is recorded as −5.4% and the “ASMS ratio (%) n = 2” value is recorded as −4.2%.
Turning to “4-[4-[4-(3-Ethoxyphenyl)thiophene-2-carbonyl]piperazin-1-yl]-N-propylbenzamide [B1M083-01]”, under setting [1], the “ASMS ratio (%) n = 1” value is listed as 0.0% and the “ASMS ratio (%) n = 2” value was −0.3%.
For the compound `CCOc1cncc(C#Cc2ccccc2C(=O)N2CCN(c3ccc(C(=O)NCC(F)(F)F)cc3)CC2)c1` [B1K030-01, 4-[4-[2-[2-(5-Ethoxypyridin-3-yl)ethynyl]benzoyl]piperazin-1-yl]-N-(2,2,2-trifluoroethyl)benzamide], under setting [2], the “ASMS ratio (%) n = 1” value came to 0.0% and the “ASMS ratio (%) n = 2” value was 0.9%.
For the compound `CCOc1cncc(C#Cc2ccccc2C(=O)N2CCN(c3ccc(C(=O)N(C)CC45CC6CC(CC(C6)C4)C5)cc3)CC2)c1` [B3A030-01, N-(1-Adamantylmethyl)-4-[4-[2-[2-(5-ethoxypyridin-3-yl)ethynyl]benzoyl]piperazin-1-yl]-N-methylbenzamide], under setting [1], the “ASMS ratio (%) n = 1” value is 8.4% and the “ASMS ratio (%) n = 2” value is −15.2%.
Regarding `CCOc1cncc(C#Cc2ccccc2CN2CCN(c3ccc(C(=O)NS(=O)(=O)CC45CC6CC(CC(C6)C4)C5)cc3)CC2)c1` [B2A070-01, N-(1-Adamantylmethylsulfonyl)-4-[4-[[2-[2-(5-ethoxypyridin-3-yl)ethynyl]phenyl]methyl]piperazin-1-yl]benzamide], the “ASMS ratio (%) n = 2” value (AS-MS, mixture library, Bcl-2) is given as 0.0%.
For `CCOc1cncc(-c2ccc(C(=O)N3CCN(c4ccc(C(=O)N(CC)CC)nn4)CC3)c3ccccc23)c1` [B4J014-01, 6-[4-[4-(5-Ethoxypyridin-3-yl)naphthalene-1-carbonyl]piperazin-1-yl]-N,N-diethylpyridazine-3-carboxamide], under setting [1], the “ASMS ratio (%) n = 1” value is 0.0% and the “ASMS ratio (%) n = 2” value is recorded as −0.8%.
On to “4-[4-[[4-(5-Ethoxypyridin-3-yl)thiophen-2-yl]methyl]piperazin-1-yl]-N-propylbenzamide [B1M050-01]”, for which, under setting [2], the “ASMS ratio (%) n = 1” value was −2.0% and the “ASMS ratio (%) n = 2” value is on record as −0.2%.
Regarding `CCOc1cncc(C#Cc2cc(C(=O)N3CCN(c4ccc(C(=O)NS(=O)(=O)C(C)(C)C)nn4)CC3)cc(C(F)(F)F)c2)c1` [B2L020-01, N-tert-Butylsulfonyl-6-[4-[3-[2-(5-ethoxypyridin-3-yl)ethynyl]-5-(trifluoromethyl)benzoyl]piperazin-1-yl]pyridazine-3-carboxamide], the “ASMS ratio (%)” value is, setting by setting: (n = 1) 0.0%; (n = 2) 0.0%.
